According to patent US12187663B2, “Thyromimetics with a biphenylmethane scaffold and their use” (INTERNATIONAL SOCIETY FOR DRUG DEVELOPMENT S.R.L., priority 2019, dated 2025):

How the values were obtained:
HepG2 cells [1] = assay: Total lipid accumulation by Oil Red O staining; format: cell-based, Human; settings: 25 μM
Protocol: Total lipid accumulation was evaluated according to the method previously described by Liu et al.. […] Cloroquine (25 μM) and Isoproterenol (10 μM) were used as positive controls. Subsequently, after collecting the growth media to be used to perform glycerol level measurements (as detailed below), cells were rinsed twice with PBS and fixed in 4% paraformaldehyde in PBS for 30 min. Then, cells were stained with Oil Red O working solution for 1 h at room temperature and subsequently rinsed with water.
The Oil Red O stock solution was prepared by dissolving 0.35 g of Oil Red O (Sigma Aldrich, Milan, Italy) in 100 mL of isopropanol by gentle heating and then cooled and filtered through a 0.45 μm filter. The working solution was prepared by diluting three parts of the stock solution in two parts of MilliQ water (stock solution:MilliQ water; 3:2 v/v). The cell images were captured with a Leitz Fluovert FU (Leica Microsystems, Wetzlar, Germany) microscope. Lipids appeared red. For quantitative analysis of cellular lipids, 1 mL isopropanol was added to each well of the stained culture plate. The extracted dye was immediately removed by gentle pipetting and its absorbance was measured at 510 nm.

AMPK = assay: Western blot of phosphorylated AMPK in HepG2 cells; format: cell-based, Human; settings: twenty-four hours of treatment, dose dependent
Protocol: (§1) Human hepatocellular carcinoma cells (HepG2), obtained from American Type Culture Collection (Manassas, Va., USA), were cultured in low-glucose (LG) Dulbecco's modified Eagle's medium (DMEM) ([…], Invitrogen, Carlsbad, Calif., USA) or high-glucose (HG) DMEM ([…]) supplemented with 10% fetal bovine serum (FBS) and […] penicillin/streptomycin in an atmosphere of 5% CO2 at 37° C. These cells were then treated with tested compounds at various concentrations for 24 h. After treatments, cells were lysed in a buffer containing 20 mM Tris-HCl (pH 7.5), 0.9% NaCl, 0.2% Triton X-100, and 1% of the protease inhibitor cocktail (Sigma-Aldrich, Milan, Italy) and then stored at −80° C. for further western blot analysis. All the analyses were conducted on cells between the third and the sixth passage.
(§2) Proteins (20-30 μg) were separated on CriterionTGX™ gel (4-20%) and transferred on Immuno-PVDF membrane (Biorad, Milan, Italy) for 1 h. Blots were incubated with the primary antibody at 4° C. overnight. All the polyclonal antibodies for the protein of interest were purchased from Santa Cruz Biotechnology, Inc., Dallas, TX, USA. Then, blots were washed 3 times for 10 minutes with 1×TBS, 0.1% Tween® 20 and incubated for 1 h with secondary antibody (peroxidase-coupled anti rabbit in 1×TBS, 0.1% Tween®20). […] Band densitometric analysis was performed using Image Lab Software (Biorad, Milan, Italy).
(§3) The liver is a major organ responsible for most functions of cellular metabolism and a mediator between dietary and endogenous sources of energy for extrahepatic tissues. In this context, AMPK constitutes an intrahepatic energy sensor regulating physiological energy dynamics by limiting anabolism and stimulating catabolism, thus increasing ATP availability. Once activated, AMPK phosphorylates its downstream substrates to reduce ATP-consuming anabolic pathways, including cholesterol, fatty acid, and triacylglycerol synthesis, and increases ATP-generating catabolic pathways, including fatty acid oxidation and lipolysis. […]

ACC = assay: Western blot of phosphorylated ACC in HepG2 cells; format: cell-based, Human; settings: twenty-four hours of treatment
Protocol: as §1, §2, §3

HepG2 cells [2] = assay: Cell viability MTT assay; format: cell-based; settings: 1-10 μM, 24 h
Protocol: HepG2 cells were seeded in a 96-well plate (Corning, USA) at a density of 1.0×10^4 cells/well with DMEM (200 μl/well), and then incubated for 24 h according to routine procedure. After being treated with test compounds (1-10 μM) and incubated for 24 h (8 wells for each sample), 20 μL/well MTT (5 g/L) was added to each well. The medium was then removed after 4 h incubation and 100 μL/well sodium dodecyl sulfate (SDS)-HCl solution was added to dissolve the reduced formazan product after incubation for 16 h at 37° C. Finally, the plate was read at 570 nm, using a micro-plate reader (Bio-Rad 680, USA).

pancreatic acinar cells = assay: Pancreatic acinar cell proliferation (BrdU labeling index); format: in vivo, rats; settings: one week; T3 4 mg/kg diet; GC1 50 μg/kg gavage once daily; TG68 and IS25 50 μg/kg in drinking water
Protocol: FIG. 9. […] BrdU (1 mg/ml) in drinking water was given all throughout the experimental time. […] LI was expressed as number of BrdU-positive acinar cell nuclei/100 nuclei. At least 2000 acinar cells per pancreas were scored. Results are expressed as means±SE of 3 to 5 rats per group. (one way ANOVA). ***Statistically significant from control; P<0.001.
BrdU (1 mg/ml) in drinking water was given all throughout the experimental time. […] LI was expressed as number of BrdU-positive acinar cell nuclei/100 nuclei. At least 2000 acinar cells per pancreas were scored.

[3] = known property of the reference; cited from earlier work

Q: For `CCN(CC)CCCC(C)Nc1ccnc2cc(Cl)ccc12` (stereo not drawn) [Cloroquine], which “red lipid droplets (Oil Red O), steatosis-inducing positive control” value (HepG2 cells [1]) is on record?
A: Its value is “high amount of red lipid droplets”.

Q: With `N[C@@H](Cc1cc(I)c(Oc2ccc(O)c(I)c2)c(I)c1)C(=O)O` [Compound T3, 3,5,3′-triiodothyronine, reference compound] as the compound, how does the “expression of p-AMPK” value (AMPK) read?
A: Its value is “significantly (p<0.05) increased”.

Q: What about the “ACC phosphorylation (p-ACC)” value (ACC) of the same compound?
A: Its value is “significant ACC phosphorylation”.

Q: What about the “cell viability (cell death with respect to control)” value (HepG2 cells [2]) of the same compound?
A: The value was “did not significantly (p<0.05) cause cell death”.

Q: Which “pancreatic acinar cell proliferation (BrdU-positive acinar cells)” value (pancreatic acinar cells) does the source give for `Cc1cc(OCC(=O)O)cc(C)c1Cc1ccc(O)c(C(C)C)c1` [GC-1, Sobetirome, reference compound] here?
A: The value was “Several BrdU-positive acinar cells were observed”.

Q: And the solubility in water [3]?
A: Its solubility in water is “insoluble compound in water”.
